53 compounds from patent US10703764B2, “Benzopiperazine compositions as BET bromodomain inhibitors” (FORMA Therapeutics, Inc., priority 2013, dated 2020) can be followed below.

Assay [1] concerns the target T1, BRD4 BD2 (Homo sapiens, UniProt O60885).
T1 construct: made in house
The assay is described as follows: AlphaScreen binding assay, BRD4 Bromodomain 2. In outline: (§1)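 Compound dilution series were mixed with His-tagged BRD4 bromodomain and biotinylated tetra-acetylated H4 (1-21) peptide at pH 7.3 (BD1 and peptide at 50 nM, BD2 and peptide at 100 nM). Donor and acceptor beads were then added, and plates were equilibrated at least 1 h before reading. IC50 values were fitted with a four-parameter logistic model.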

The target of assay [2] is T2, BRD4 BD1 (Homo sapiens, UniProt O60885).
T2 construct: made in house
Description: AlphaScreen binding assay, BRD4 Bromodomain 1. The method in brief: as §1
In general terms: Bead proximity is the source of the signal in Alpha formats.

As for `COC(=O)N1c2ccc(-c3ccc(CS(N)(=O)=O)cc3)cc2N(C(=O)OC(C)C)C[C@@H]1C` [Example I-487], the IC50 (in general, the concentration that gives 50% inhibition) was over 500 nM in assay [1] and 100 to 1000 nM in assay [2].
`COC(=O)N1c2ccc(-c3ccc(S(=O)(=O)CCN)cc3)cc2N(C(=O)OC(C)C)C[C@@H]1C` [Example I-488]: the IC50 in assay [1] was in the range of 50 to 500 nM; in assay [2], 100 to 1000 nM.
Take `COC(=O)N1c2ccc(-c3ccc(C(=O)NCCN)cc3)cc2N(C(=O)OC(C)C)C[C@@H]1C` [Example I-489]: the IC50 is over 500 nM in assay [1] and 1000 to 10000 nM in assay [2].
For `CC(=O)N1c2ccc(-c3ncco3)cc2N(C(=O)c2ccco2)C[C@@H]1C` [Example I-491], the IC50 in assay [1] was in the range of 50 to 500 nM; in assay [2], 1000 to 10000 nM.
With `CC(=O)N1c2ccc(-c3ccc(N(C)S(C)(=O)=O)cc3)cc2N(C(=O)c2ccco2)C[C@@H]1C` [Example I-492], the values for the IC50 in assay [1] and in assay [2] were under 50 nM and 100 to 1000 nM, respectively.
Take `CC(=O)N1c2ccc(-c3ccc(S(C)(=O)=O)cc3)cc2N(C(=O)OC2COC2)C[C@@H]1C` [Example I-497]: the IC50 is over 500 nM in assay [1] and 1000 to 10000 nM in assay [2].
For `COc1ccc(OC(=O)N2C[C@H](C)N(C(C)=O)c3ccc(-c4cnn(C5CC5)c4)cc32)c(Cl)c1` [Example I-505] the same measures were 50 to 500 nM and 1000 to 10000 nM.
In the case of `CC(=O)N1c2ccc(-c3cnn(C4CC4)c3)cc2N(C(=O)Oc2cccnc2C)C[C@@H]1C` [Example I-514], the values for the IC50 in assay [1] and in assay [2] were 50 to 500 nM and 1000 to 10000 nM, respectively.
`CC(=O)N1c2ccc(-c3cnn(C4CC4)c3)cc2N(C(=O)Oc2ccc(C)cc2C)C[C@@H]1C` [Example I-516]: the IC50 in assay [1] lay in the range of 50 to 500 nM; in assay [2], 1000 to 10000 nM.
`CC(=O)N1c2ccc(-c3cnn(C4CC4)c3)cc2N(C(=O)Oc2cncc(C)c2)C[C@@H]1C` [Example I-520]: the IC50 in assay [1] was in the range of 50 to 500 nM; in assay [2], 1000 to 10000 nM.
On the same counts, the results for `CC(=O)N1c2ccc(-c3cnn(C4CC4)c3)cc2N(C(=O)Oc2cncc3ccccc23)C[C@@H]1C` [Example I-525] are 50 to 500 nM and 1000 to 10000 nM.
On to `CC(=O)N1c2ccc(-c3cnn(C4CC4)c3)cc2N(C(=O)Oc2ccc(C#N)cc2Cl)C[C@@H]1C` [Example I-528], for which the IC50 in assay [1] was 50 to 500 nM; in assay [2], 1000 to 10000 nM.
With `COc1ccc(Cl)c(OC(=O)N2C[C@H](C)N(C(C)=O)c3ccc(-c4cnn(C5CC5)c4)cc32)c1` [Example I-531], the IC50 in assay [1] was 50 to 500 nM; in assay [2], 1000 to 10000 nM.
For `CC(=O)N1c2ccc(-c3ccc(C(=O)Nc4ccccc4)cc3)cc2N(C(=O)OC(C)C)C[C@@H]1C` [Example I-535], the IC50 in assay [1] lay within 50 to 500 nM; in assay [2] it was 1000 to 10000 nM.
As to `COC(=O)N1c2ccc(-c3ccc(C(=O)NCc4ncco4)cc3)cc2N(C(=O)OC(C)C)C[C@@H]1C` [Example I-583], the IC50 in assay [1] was over 500 nM; in assay [2] it was 1000 to 10000 nM.
`CC(C)OC(=O)N1C[C@H](C)N(C(=O)C2CC2)c2ccc(-c3ccc(C(=O)NCc4ncco4)cc3)cc21` [Example I-585]: the IC50 in assay [1] was over 500 nM; in assay [2] it was 1000 to 10000 nM.
For `CC(C)OC(=O)N1C[C@H](C)N(C(=O)C2CC2)c2ccc(-c3cnn(CC(=O)N(C)C4CC4)c3)cc21` [Example I-610], the IC50 in assay [1] lay in the range of 50 to 500 nM; in assay [2], 1000 to 10000 nM.
As to `CC(C)OC(=O)N1C[C@H](C)N(C(=O)C2CC2)c2ccc(-c3cnn(CCNS(C)(=O)=O)c3)cc21` [Example I-613], the IC50 in assay [1] was over 500 nM; in assay [2] it was 1000 to 10000 nM.
Turning to `CC(C)OC(=O)N1C[C@H](C)N(C(=O)C2CC2)c2ccc(-c3cnn(CC(=O)N4CCCCC4)c3)cc21` [Example I-614], the IC50 in assay [1] fell in the range of 50 to 500 nM; in assay [2] it was 1000 to 10000 nM.
For `CC(C)OC(=O)N1C[C@H](C)N(C(=O)C2CC2)c2ccc(-c3cnn(CC#N)c3)cc21` [Example I-622] the same measures were over 500 nM and 1000 to 10000 nM.
With `COC(=O)N1c2ccc(-c3cnn(CC(=O)N4CCCCC4)c3)cc2N(C(=O)OC(C)C)C[C@@H]1C` [Example I-629], the IC50 in assay [1] was in the range of 50 to 500 nM; in assay [2], 1000 to 10000 nM.
For `COC(=O)N1c2ccc(-c3cnn(CC4CCC4)c3)cc2N(C(=O)OC(C)C)C[C@@H]1C` [Example I-635], the IC50 in assay [1] was over 500 nM; in assay [2] it was 1000 to 10000 nM.
On the same counts, the results for `COC(=O)N1c2ccc(-c3cnn(CC#N)c3)cc2N(C(=O)OC(C)C)C[C@@H]1C` [Example I-639] are over 500 nM and 1000 to 10000 nM.
For `COC(=O)N1c2ccc(-c3cnn(CCN(C)C)c3)cc2N(C(=O)OC(C)C)C[C@@H]1C` [Example I-645] the same measures were over 500 nM and 1000 to 10000 nM.
For `CC(C)OC(=O)N1C[C@H](C)N(C(=O)C2CC2)c2ccc(-c3cnn(CCN(C)C)c3)cc21` [Example I-646] the same measures were over 500 nM and 1000 to 10000 nM.
Consider `CC(=O)N1c2ccc(-c3cnn(C(C)(C)C(N)=O)c3)cc2N(C(=O)C2CC2)C[C@@H]1C` [Example I-648], for which the values for the IC50 in assay [1] and in assay [2] were 50 to 500 nM and 1000 to 10000 nM, respectively.
In the case of `CC(=O)N1c2ccc(-c3cnn(CC(N)=O)c3)cc2N(C(=O)C2CC2)C[C@@H]1C` [Example I-655], the figures for the IC50 in assay [1] and in assay [2] were 50 to 500 nM and 1000 to 10000 nM, respectively.
On the same counts, the results for `CC(=O)N1c2ccc(-c3cnn(CC(=O)N(C)C4CC4)c3)cc2N(C(=O)C2CC2)C[C@@H]1C` [Example I-658] are 50 to 500 nM and 1000 to 10000 nM.
On the same counts, the results for `CC(=O)N1c2ccc(-c3cnn(CCN4CCCC4=O)c3)cc2N(C(=O)C2CC2)C[C@@H]1C` [Example I-660] are 50 to 500 nM and 1000 to 10000 nM.
With `CC(=O)N1c2ccc(-c3cnn(CC(=O)N4CCCCC4)c3)cc2N(C(=O)C2CC2)C[C@@H]1C` [Example I-661], the IC50 in assay [1] is 50 to 500 nM; in assay [2], 1000 to 10000 nM.
For `CC(=O)N1c2ccc(-c3cnn(CC(=O)N4CCC4)c3)cc2N(C(=O)C2CC2)C[C@@H]1C` [Example I-672], the IC50 in assay [1] is 50 to 500 nM; in assay [2], 1000 to 10000 nM.
For the compound `CC(=O)N1c2ccc(-c3cnn(CCC(N)=O)c3)cc2N(C(=O)C2CC2)C[C@@H]1C` [Example I-674], the IC50 in assay [1] lay in the range of 50 to 500 nM; in assay [2], 1000 to 10000 nM.
For `CC(=O)N1c2ccc(-c3cnn(CC#N)c3)cc2N(C(=O)C2CC2)C[C@@H]1C` [Example I-675] the same measures were 50 to 500 nM and 1000 to 10000 nM.
As to `CC(=O)N1c2ccc(-c3cnn(CC(=O)O)c3)cc2N(C(=O)C2CC2)C[C@@H]1C` [Example I-676], the IC50 in assay [1] was over 500 nM; in assay [2] it was 1000 to 10000 nM.
As to `CCNC(=O)Cn1cc(-c2ccc3c(c2)N(C(=O)C2CC2)CC(C)N3C(C)=O)cn1` (stereo not shown) [Example I-681], the values for the IC50 in assay [1] and in assay [2] were 50 to 500 nM and 1000 to 10000 nM, respectively.
Take `CC(=O)N1c2ccc(-c3cnn(CC(=O)N(C)C)c3)cc2N(C(=O)C2CC2)C[C@@H]1C` [Example I-683]: the IC50 in assay [1] lay in the range of 50 to 500 nM; in assay [2], 1000 to 10000 nM.
On to `CC(=O)N1c2ccc(-c3cnn(CC4CCS(=O)(=O)CC4)c3)cc2N(C(=O)C2CC2)C[C@@H]1C` [Example I-684], for which the figures for the IC50 in assay [1] and in assay [2] were 50 to 500 nM and 100 to 1000 nM, respectively.
Take `COC(=O)N1c2ccc(-c3cnn(C[C@@H]4CCNC4)c3)cc2N(C(=O)OC(C)C)C[C@@H]1C` [Example I-691]: the IC50 is 50 to 500 nM in assay [1] and 1000 to 10000 nM in assay [2].
With `CC(=O)N1c2ccccc2N(C(=O)CCN(C)C)C[C@@H]1C` [Example I-693], the IC50 in assay [1] is over 500 nM; in assay [2], over 10000 nM.
As to `CC(=O)N1c2ccccc2N(C(=O)c2ccccc2)C[C@@H]1C` [Example I-694], the IC50 in assay [1] is over 500 nM; in assay [2] it was over 10000 nM.
Turning to `CC(=O)N1c2ccccc2N(C(=O)Cc2ccccc2)C[C@@H]1C` [Example I-695], the results for the IC50 in assay [1] and in assay [2] were over 500 nM and over 10000 nM, respectively.
Take `CC(=O)N1c2ccccc2N(C(=O)CCc2ccccc2)C[C@@H]1C` [Example I-696]: the IC50 is over 500 nM in assay [1] and over 10000 nM in assay [2].
For `CC(=O)N1c2ccccc2N(C(=O)C2CCCCC2)C[C@@H]1C` [Example I-697], the figures for the IC50 in assay [1] and in assay [2] were over 500 nM and over 10000 nM, respectively.
Turning to `COc1ccc(CC(=O)N2C[C@H](C)N(C(C)=O)c3ccccc32)cc1` [Example I-698], the IC50 in assay [1] was over 500 nM; in assay [2], over 10000 nM.
On to `COc1cccc(CC(=O)N2C[C@H](C)N(C(C)=O)c3ccccc32)c1` [Example I-699], for which the IC50 was over 500 nM in assay [1] and over 10000 nM in assay [2].
Turning to `COCCC(=O)N1C[C@H](C)N(C(C)=O)c2ccccc21` [Example I-700], the IC50 in assay [1] was over 500 nM; in assay [2] it was over 10000 nM.
Turning to `CC(=O)N1c2ccccc2N(C(=O)c2ccc3c(c2)OCO3)C[C@@H]1C` [Example I-701], the IC50 is over 500 nM in assay [1] and over 10000 nM in assay [2].
For `COc1ccccc1C(=O)N1C[C@H](C)N(C(C)=O)c2ccccc21` [Example I-702], the IC50 in assay [1] is over 500 nM; in assay [2], over 10000 nM.
Regarding `CC(=O)N1c2ccccc2N(C(=O)c2ccc(-c3ccccc3)cc2)C[C@@H]1C` [Example I-703], the values for the IC50 in assay [1] and in assay [2] were over 500 nM and over 10000 nM, respectively.
For `CC(=O)N1c2ccccc2N(C(=O)c2ccncc2)C[C@@H]1C` [Example I-704] the same measures were over 500 nM and over 10000 nM.
With `CC(=O)N1c2ccccc2N(C(=O)c2csc(C)n2)C[C@@H]1C` [Example I-705], the IC50 in assay [1] was over 500 nM; in assay [2], over 10000 nM.
On the same counts, the results for `CC(=O)N1c2ccccc2N(C(=O)CC2CCOCC2)C[C@@H]1C` [Example I-706] are over 500 nM and over 10000 nM.
Take `CC(=O)N1c2ccccc2N(C(=O)Cc2ccc(-c3ccccc3)cc2)C[C@@H]1C` [Example I-707]: the IC50 was over 500 nM in assay [1] and over 10000 nM in assay [2].
